Assay [1] deals with genes associated with oxidative stress in dorsal root ganglia. Put plainly: qRT-PCR of dorsal root ganglia 14 days after burn. The assay is classed as in vivo, Sprague Dawley rats. To be noted: DRG 14 days after burn, sham = 1. An excerpt: Survivors of severe burns suffer lifetime neuroinflammatory consequences manifested by higher incidence of major depression and neurodegenerative disease. […] Nephrilin's mechanism of action appears to involve protection from excessive oxidative stress. Using quantitative reverse transcriptase polymerase chain reaction (qRT-PCR) amplification of transcripts in total RNA extracted from dorsal root ganglia (DRG) of male rats 14 days after exposure to thermal insult, we query the relative levels of expression of 34 genes believed to be associated with oxidative stress biology in the CNS. […] This subset analysis of DRG from a previously published study (n=3 per group) is associated with the following effects in the study (Table x7A):
In this study, using quantitative reverse transcriptase polymerase chain reaction (qRT-PCR) amplification of transcripts in total RNA extracted from dorsal root ganglia of male rats 14 days after exposure to thermal insult, the relative levels of expression of 34 genes believed to be associated with oxidative stress biology in the CNS were queried, with an emphasis on astrogliosis, immunosuppression and mitochondrial homeostasis. The 34 genes studied were selected based on their known implication in the above processes, as described in the scientific literature. Dorsal root ganglia (DRG) were dissected from male adult Sprague Dawley rats (300 gm, Charles River Laboratories, Wilmington, MA, USA), three randomly selected animals in each treatment group were used (Group 1:sham; Group 2: burn+vehicle; Group 3: burn+IM3N1) and total RNA was extracted from each pool using the Rneasy Midi Kit (Qiagen, Germantown, MD). Yield was ˜30 ug RNA per pool and A260/A280 ratios were between 1.87-2.04 in all cases. The high quality of each RNA prep was further confirmed by electrophoresis (using Eukaryote Total RNA Nano). For quantitative reverse transcriptase polymerase chain reaction (qRT-PCR) RNAs were diluted in RNase/DNase free water and aliquoted into wells in triplicate. Approximately 100 ng of RNA was used per well. A one step qPCR method was performed using Luna Universal One-Step RT-qPCR kit (New England Biolabs, Ipswich, MA) containing reverse transcriptase enzyme mix. Primer pairs for each gene were synthesized for the SYBR assay. The following standard qPCR cycling conditions were used: 55C for 10′ (for RT), 95C for 1′ followed by 40 cycles at 95C for 10 s. 58C for 30 s. Background was set at 3-10 cycles and the threshold was set at 0.02 for all runs. Ct values were collected and analyzed using the “delta-delta Ct” method. Transcript data for each gene are shown relative to GAPDH, a house-keeping gene. Sham group value was set to 1. Gene groups: [A] astrocyte activation; [B] MDSC-mediated immunosuppression; [C] Mitochondrial homeostasis; [D] Downstream effects of oxidative stress;

The test system of assay [2] is THP1-Dual monocytes. Description: Succinic acid in THP1-Dual supernatant (x4A). The assay is classed as cell-based. The protocol: Immune modulation functions of immodulator peptides were measured using the monocyte reporter cell line THP1-Dual (Invivogen, San Diego, CA), which provides convenient readouts for STING and NF-kappa-B pathways. Optionally, succinic acid, cytokine and chemokine production were also measured. THP1-Dual cell line was obtained from Invivogen. Cells were grown in a T-75 flask in RPMI Medium containing 20% fetal bovine serum, blasticidin ([…]), zeocin ([…]) and penicillin-streptomycin at 37° C. in a humidified, 5% CO2 incubator. Cells ([…], 8,000 cells/well) were plated in a 96-well plate and incubated overnight at 37 °C in a humidified, 5% CO2 incubator. Next day, […] of compounds were added (quadruplicate wells). After 24 hour incubation with the compound, supernatants were harvested and stored at 4° C. prior to assay.
STING activity using reagents QuantiBlu and QuantiLuc respectively, according to the manufacturer's recommendations (Invivogen, San Diego, CA). Succinic acid was measured by using a kit from Megazyme Inc (Cambridge, MA). Control value of activity was set to 100 in each assay. […] PAM3C=25 ng/ml PAM3CSK4 (TLR1/2 inducer); Poly(I:C)=10 ug/ml (TLR3 inducer); PAM2C=25 ng/ml PAM2CSK4 (TLR2/6 inducer); KIN14=4 uM KIN-1400 (RIG-I inducer); cytB=1 uM cytosporone B (Nur77 inducer); C-178=1 uM STING inhibitor; NFkBi=50 ug/ml NFkB inhibitor peptide; SB2021=10 uM p38MAPK inhibitor; *p<0.05, **p<0.01 vs IM3 control; #p<0.01 vs “no inducer” control; SUCC=succinic acid; nd=not done; Peptide was added to cells at 400 nM.
Peptides were added to cells at 400 nM. […]

Marks after values point to notes of the source that are not given here. Peptide text beside a SMILES is read from it.

Turning to “RGVTEDYLRLETLVQKVVSKGFYKKKQCRPSKGRKRGFCW [IM3N1]”, the “GFAP transcript relative to GAPDH” value in assay [1] ([A] astrocyte activation, IM3N1 4 mg/kg sc 7 days) was determined as 2.40. Also, in assay [1] ([A]), the “AQP4 transcript relative to GAPDH” value worked out at 0.59, the “CTGF transcript relative to GAPDH” value came to 1.61, the “GALANIN transcript relative to GAPDH” value turned out to be 18.50 and the “NPY transcript relative to GAPDH” value stood at 29.50. In addition, in assay [1] ([A]), the “Pi16 transcript relative to GAPDH” value is listed as 2.40 and the “S100A9 transcript relative to GAPDH” value was determined as 5.01. Also, the “SLC7A11 transcript relative to GAPDH” value in assay [1] ([B] MDSC-mediated immunosuppression) worked out at 4.78. For the same compound, in assay [1] ([B]), the “ARG1 transcript relative to GAPDH” value is given as 3.09, the “CCL2 transcript relative to GAPDH” value was 3.17, the “CD63 transcript relative to GAPDH” value was 1.88 and the “NRF2 transcript relative to GAPDH” value is 1.29. Besides, the “TFAM transcript relative to GAPDH” value in assay [1] ([C] Mitochondrial homeostasis) stood at 1.14. For the same compound, in assay [1] ([C]), the “ACMSD transcript relative to GAPDH” value is 0.97, the “BOK transcript relative to GAPDH” value was 1.10, the “FIS1 transcript relative to GAPDH” value was 0.90 and the “GLUL transcript relative to GAPDH” value is given as 1.53. In addition, in assay [1] ([C]), the “HCRTR1 transcript relative to GAPDH” value was 1.42, the “MFN2 transcript relative to GAPDH” value was determined as 1.48, the “NOX2 transcript relative to GAPDH” value is recorded as 2.07 and the “NOX4 transcript relative to GAPDH” value came to 6.57. For the same compound, in assay [1] ([C]), the “OXR1 transcript relative to GAPDH” value is recorded as 1.04, the “PINK1 transcript relative to GAPDH” value is 1.35, the “PPARGC1A transcript relative to GAPDH” value turned out to be 1.00 and the “RAC1 transcript relative to GAPDH” value was determined as 1.00. Also, in assay [1] ([C]), the “SHC1 transcript relative to GAPDH” value came out at 2.34, the “SLC23A2 transcript relative to GAPDH” value was 1.47, the “STEAP4 transcript relative to GAPDH” value worked out at 1.77 and the “UCP2 transcript relative to GAPDH” value is 1.22. The “PLSCR1 transcript relative to GAPDH” value in assay [1] ([D] Downstream effects of oxidative stress) is 2.30. Further, in assay [1] ([D]), the “BACE1 transcript relative to GAPDH” value is recorded as 1.42, the “SLC12A2 transcript relative to GAPDH” value is given as 1.59 and the “SLC12A5 transcript relative to GAPDH” value amounted to 1.38.
`N=C(N)NCCC[C@H](NC(=O)CNC(=O)[C@H](CCCCN)NC(=O)[C@H](CO)NC(=O)[C@@H]1CCCN1C(=O)[C@H](CCCNC(=N)N)NC(=O)[C@H](CS)NC(=O)[C@H](CCC(N)=O)NC(=O)[C@H](CCCCN)NC(=O)[C@H](CCCCN)NC(=O)[C@H](CCCCN)NC(=O)[C@H](Cc1ccc(O)cc1)NC(=O)[C@H](Cc1ccccc1)NC(=O)CNC(=O)[C@H](CCCCN)NC(=O)[C@@H](N)CCCCN)C(=O)N[C@@H](CCCCN)C(=O)N[C@@H](CCCNC(=N)N)C(=O)NCC(=O)N[C@@H](Cc1ccccc1)C(=O)N[C@@H](CS)C(=O)N[C@@H](Cc1c[nH]c2ccccc12)C(=O)O` [IM3] (H-KKGFYKKKQCRPSKGRKRGFCW-OH; N-terminus and C-terminus assumed): the SUCC in assay [2] (peptide 400 nM + KIN1400 (= 100)) is listed as 100; in assay [2] (peptide 400 nM + KIN1400 + C-178 1 uM), 103.2; in assay [2] (peptide 400 nM + KIN1400 + NFkBi 50 ug/ml), 99.2; in assay [2] (peptide 400 nM + KIN1400 + SB2021 10 uM) it was 131.6*; in assay [2] (peptide 400 nM + KIN1400 + cytB 1 uM), 96.1; in assay [2] (peptide 400 nM + PAM2C (= 100)) it was 100. Moreover, the SUCC in assay [2] (peptide 400 nM + PAM2C + C-178 1 uM) is listed as 96.1; in assay [2] (peptide 400 nM + PAM2C + NFkBi 50 ug/ml) it was 100.1; in assay [2] (peptide 400 nM + PAM2C + SB2021 10 uM), 93.4; in assay [2] (peptide 400 nM + PAM2C + cytB 1 uM) it was 85.1*; in assay [2] (peptide 400 nM + PAM3C), 100; in assay [2] (peptide 400 nM + PAM3C + C-178 1 uM) it was 95.3. Besides, the SUCC is given as 101.5 in assay [2] (peptide 400 nM + PAM3C + NFkBi 50 ug/ml), 95.8 in assay [2] (peptide 400 nM + PAM3C + SB2021 10 uM) and 95.4 in assay [2] (peptide 400 nM + PAM3C + cytB 1 uM).

(Values after patent US12102685B2, “Immodulator peptides covalently modified with small molecules” (priority 2020, dated 2024).)
